Results as given in publication PMC2663033 (2009).

Tests used:
[1] = test system: aptamer 4 (DNA, G4) AGGGACGGGAAGAA/AAAATGTGGAGGGT; experiment: UV-Vis, hyperchromicity of hemin Soret band; conditions: 20 mM K+, 200 mM Na+; 25 mM HEPES pH 7.4, 0.05% Triton X-100, 1% DMSO; 1 µM complex
[2] = test system: aptamer I (DNA, G4) AGTCCGTGGGTAGGGCGGGTTGGGGGTGACT; experiment: peroxidase activity titration (ABTS-H2O2, A421); conditions: 20 mM K+, 200 mM Na+; 5.45 mM ABTS, 25 mM HEPES pH 8.0, 0.05% Triton X-100, 1% DMSO, 0.1 µM hemin
[3] = test system: aptamer II (DNA, G4) AGTCCGTGGTTGGTGTGGTTGGGGTGACT; experiment: peroxidase activity (ABTS-H2O2); conditions: 20 mM K+, 200 mM Na+; 25 mM HEPES pH 8.0, 0.05% Triton X-100, 1% DMSO; 1 µM hemin plus 1 µM aptamer
[4] = test system: aptamer III (DNA, G4) AGGGACGGGAAGAAAAGGAAAATCCTTAAAATGTGGAGGGT; experiment: UV-Vis, hyperchromicity of hemin Soret band; conditions: 20 mM K+, 200 mM Na+; 25 mM HEPES pH 7.4, 0.05% Triton X-100, 1% DMSO; 1 µM complex; about 2 x affinity of aptamer 4
[5] = test system: aptamer 1 (DNA, G4) GGGTAGGGCGGGTTGGG; experiment: peroxidase activity titration (ABTS-H2O2, A421); conditions: 20 mM K+, 200 mM Na+; 5.45 mM ABTS, 25 mM HEPES pH 8.0, 0.05% Triton X-100, 1% DMSO, 0.1 µM hemin

binding [1]: yes | Kd [2]: 194 ± 10 nM | binding [3]: yes | binding [4]: yes | Kd [5]: 258 ± 7 nM
SMILES: C=CC1=C(C)C2=Cc3c(C=C)c(C)c4[n]3[Fe]([Cl])[n]3c(c(C)c(CCC(=O)O)c3=CC3=NC(=C4)C(C)=C3CCC(=O)O)=CC1=N2
